ChEMBL document CHEMBL4673401 (ACS Med Chem Lett, 2021)

Tests used:
MC-38 = assay: Antitumor activity against mouse MC38 cells xenografted in humanized PD-1 mouse assessed as tumor growth inhibition at 100 mg/kg, po bid for 14 days in combination with PD-1 antibody at 3 mg/kg, ip qod for 8 days by digital caliper method relative to control; format: functional; details: MC-38, 336 h, time 14 day, read-out: TGI
[1] = Half life in human liver microsomes; format: ADME, Microsome
[2] = Half life in rat liver microsomes; format: ADME, Microsome
[3] = Protein binding in human plasma by rapid equilibrium dialysis method; format: ADME, cell-free; details: read-out: PPB (converted)
[4] = Protein binding in dog plasma by rapid equilibrium dialysis method; format: ADME, cell-free, Canis lupus familiaris; details: read-out: PPB (converted)
[5] = Protein binding in rat plasma by rapid equilibrium dialysis method; format: ADME, cell-free; details: read-out: PPB (converted)
[6] = target: Voltage-gated inwardly rectifying potassium channel KCNH2 (Homo sapiens, UniProt Q12809); assay: Inhibition of human ERG expressed in CHO-K1 cells at -90 mV holding potential by automated patch-clamp method; format: cell-based
Cytochrome P450 3A4 = Cytochrome P450 3A4 (Homo sapiens, UniProt P08684); assay: Inhibition of CYP3A4 in human liver microsomes using midazolam as substrate incubated for 10 mins in presence of NADPH by UHPLC-MS/MS analysis; format: ADME
Cytochrome P450 2D6 = Cytochrome P450 2D6 (Homo sapiens, UniProt P10635); assay: Inhibition of CYP2D6 in human liver microsomes using dextromethorphan as substrate incubated for 10 mins in presence of NADPH by UHPLC-MS/MS analysis; format: ADME
Cytochrome P450 2C19 = Cytochrome P450 2C19 (Homo sapiens, UniProt P33261); assay: Inhibition of CYP2C19 in human liver microsomes using S-mephenytoin as substrate incubated for 10 mins in presence of NADPH by UHPLC-MS/MS analysis; format: ADME; details: read-out: INH
Cytochrome P450 2C9 = Cytochrome P450 2C9 (Homo sapiens, UniProt P11712); assay: Inhibition of CYP2C9 in human liver microsomes using tolbutamide as substrate incubated for 10 mins in presence of NADPH by UHPLC-MS/MS analysis; format: ADME
Cytochrome P450 1A2 = target: T1, Cytochrome P450 1A2 (Homo sapiens, UniProt P05177); assay: Inhibition of CYP1A2 in human liver microsomes using phenacetin as substrate incubated for 10 mins in presence of NADPH by UHPLC-MS/MS analysis; format: ADME
T1 sequence (P05177 whole entry): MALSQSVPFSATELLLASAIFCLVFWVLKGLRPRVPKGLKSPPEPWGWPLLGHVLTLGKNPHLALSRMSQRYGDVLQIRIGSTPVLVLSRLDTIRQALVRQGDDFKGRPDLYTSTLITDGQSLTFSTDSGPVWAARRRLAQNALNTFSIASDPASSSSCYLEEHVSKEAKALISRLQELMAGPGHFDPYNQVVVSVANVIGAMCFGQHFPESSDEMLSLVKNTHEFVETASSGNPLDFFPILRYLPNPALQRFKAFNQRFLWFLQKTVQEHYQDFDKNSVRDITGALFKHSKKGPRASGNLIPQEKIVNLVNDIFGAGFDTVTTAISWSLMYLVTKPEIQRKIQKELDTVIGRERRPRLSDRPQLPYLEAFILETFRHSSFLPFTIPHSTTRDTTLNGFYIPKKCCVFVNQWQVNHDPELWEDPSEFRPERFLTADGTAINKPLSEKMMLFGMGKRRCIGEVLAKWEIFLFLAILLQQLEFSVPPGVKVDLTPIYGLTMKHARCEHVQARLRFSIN

[7] = Oral bioavailability in C57BL/6 mouse at 3 mg/kg measured up to 24 hrs; format: ADME, organism-based; details: in vivo
[8] = Clearance in C57BL/6 mouse at 3 mg/kg, po measured up to 24 hrs; format: ADME, organism-based; details: in vivo
[9] = Half life in C57BL/6 mouse at 3 mg/kg, po measured up to 24 hrs; format: ADME, organism-based; details: in vivo
[10] = AUC in C57BL/6 mouse at 3 mg/kg, po measured up to 24 hrs; format: ADME, organism-based; design: route oral, dose 3 mg/kg, time <=24; details: in vivo
[11] = Cmax in C57BL/6 mouse at 3 mg/kg, po measured up to 24 hrs; format: ADME, organism-based; design: route oral, dose 3 mg/kg, time <=24; details: in vivo
[12] = Oral bioavailability in Beagle dog at 2 mg/kg measured up to 24 hrs; format: ADME, organism-based, Canis lupus familiaris; details: in vivo
[13] = Clearance in Beagle dog at 2 mg/kg, po measured up to 24 hrs; format: ADME, organism-based, Canis lupus familiaris; details: in vivo
[14] = Half life in Beagle dog at 2 mg/kg, po measured up to 24 hrs; format: ADME, organism-based, Canis lupus familiaris; details: in vivo
[15] = AUC in Beagle dog at 2 mg/kg, po measured up to 24 hrs; format: ADME, organism-based, Canis lupus familiaris; design: route oral, dose 2 mg/kg, time <=24; details: in vivo
[16] = Cmax in Beagle dog at 2 mg/kg, po measured up to 24 hrs; format: ADME, organism-based, Canis lupus familiaris; design: route oral, dose 2 mg/kg, time <=24; details: in vivo
[17] = Oral bioavailability in Sprague-Dawley rat at 3 mg/kg measured up to 24 hrs; format: ADME, organism-based; details: in vivo
[18] = Clearance in Sprague-Dawley rat at 3 mg/kg, po measured up to 24 hrs; format: ADME, organism-based; details: in vivo
[19] = Half life in Sprague-Dawley rat at 3 mg/kg, po measured up to 24 hrs; format: ADME, organism-based; details: in vivo
[20] = AUC in Sprague-Dawley rat at 3 mg/kg, po measured up to 24 hrs; format: ADME, organism-based; design: route oral, dose 3 mg/kg, time <=24; details: in vivo
[21] = Cmax in Sprague-Dawley rat at 3 mg/kg, po measured up to 24 hrs; format: ADME, organism-based; design: route oral, dose 3 mg/kg, time <=24; details: in vivo
[22] = Toxicity in humanized PD-1 mouse xenografted with mouse MC38 cells assessed as effect on body weight at 100 mg/kg, po bid for 14 days in combination with PD-1 antibody at 3 mg/kg, ip qod for 8 days; format: organism-based; details: in vivo, 336 h, time 14 day
[23] = target: Tryptophan 2,3-dioxygenase (Homo sapiens, UniProt P48775); assay: Inhibition of human TDO expressed in Escherichia coli Rosetta using tryptophan as substrate incubated for 1 hr by methylene blue based assay
Sequence of Tryptophan 2,3-dioxygenase (P48775 whole entry): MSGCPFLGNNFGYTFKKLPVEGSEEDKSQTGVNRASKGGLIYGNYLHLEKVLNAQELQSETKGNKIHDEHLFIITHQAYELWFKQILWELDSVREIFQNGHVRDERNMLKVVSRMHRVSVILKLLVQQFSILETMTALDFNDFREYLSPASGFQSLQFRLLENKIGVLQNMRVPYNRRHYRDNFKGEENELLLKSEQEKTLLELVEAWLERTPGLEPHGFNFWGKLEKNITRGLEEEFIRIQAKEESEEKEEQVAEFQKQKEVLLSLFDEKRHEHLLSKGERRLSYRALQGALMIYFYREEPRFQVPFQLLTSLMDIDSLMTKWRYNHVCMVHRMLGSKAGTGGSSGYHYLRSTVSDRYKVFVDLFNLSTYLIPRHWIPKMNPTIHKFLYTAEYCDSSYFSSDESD

Sequence of Cytochrome P450 2D6 (P10635 whole entry): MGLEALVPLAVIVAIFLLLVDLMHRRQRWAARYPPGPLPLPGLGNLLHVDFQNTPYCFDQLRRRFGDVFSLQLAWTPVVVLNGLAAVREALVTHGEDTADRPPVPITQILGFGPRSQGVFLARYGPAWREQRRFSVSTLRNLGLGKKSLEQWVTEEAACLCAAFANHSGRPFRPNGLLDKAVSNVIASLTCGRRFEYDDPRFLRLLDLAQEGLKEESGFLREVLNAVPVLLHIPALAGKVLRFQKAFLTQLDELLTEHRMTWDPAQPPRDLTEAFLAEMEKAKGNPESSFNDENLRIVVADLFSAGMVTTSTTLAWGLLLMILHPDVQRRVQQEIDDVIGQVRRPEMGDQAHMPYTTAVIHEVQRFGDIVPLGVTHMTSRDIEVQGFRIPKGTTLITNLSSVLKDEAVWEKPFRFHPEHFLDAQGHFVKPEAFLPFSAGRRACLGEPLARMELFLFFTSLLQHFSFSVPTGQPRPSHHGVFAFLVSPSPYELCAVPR
Sequence of Cytochrome P450 2C19 (P33261 whole entry): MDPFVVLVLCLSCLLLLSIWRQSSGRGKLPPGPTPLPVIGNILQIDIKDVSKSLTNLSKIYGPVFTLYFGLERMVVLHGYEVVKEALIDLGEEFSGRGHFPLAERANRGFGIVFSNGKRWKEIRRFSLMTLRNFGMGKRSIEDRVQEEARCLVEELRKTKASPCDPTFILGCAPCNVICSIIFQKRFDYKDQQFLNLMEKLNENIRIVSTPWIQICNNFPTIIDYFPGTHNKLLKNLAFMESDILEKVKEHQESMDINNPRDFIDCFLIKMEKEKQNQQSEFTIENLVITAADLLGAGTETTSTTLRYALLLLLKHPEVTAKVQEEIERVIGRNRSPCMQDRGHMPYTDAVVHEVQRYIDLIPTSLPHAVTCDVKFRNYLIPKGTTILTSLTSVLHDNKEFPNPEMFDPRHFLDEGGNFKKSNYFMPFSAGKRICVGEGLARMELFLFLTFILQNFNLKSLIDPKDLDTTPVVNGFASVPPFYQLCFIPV
Sequence of Voltage-gated inwardly rectifying potassium channel KCNH2 (Q12809 whole entry): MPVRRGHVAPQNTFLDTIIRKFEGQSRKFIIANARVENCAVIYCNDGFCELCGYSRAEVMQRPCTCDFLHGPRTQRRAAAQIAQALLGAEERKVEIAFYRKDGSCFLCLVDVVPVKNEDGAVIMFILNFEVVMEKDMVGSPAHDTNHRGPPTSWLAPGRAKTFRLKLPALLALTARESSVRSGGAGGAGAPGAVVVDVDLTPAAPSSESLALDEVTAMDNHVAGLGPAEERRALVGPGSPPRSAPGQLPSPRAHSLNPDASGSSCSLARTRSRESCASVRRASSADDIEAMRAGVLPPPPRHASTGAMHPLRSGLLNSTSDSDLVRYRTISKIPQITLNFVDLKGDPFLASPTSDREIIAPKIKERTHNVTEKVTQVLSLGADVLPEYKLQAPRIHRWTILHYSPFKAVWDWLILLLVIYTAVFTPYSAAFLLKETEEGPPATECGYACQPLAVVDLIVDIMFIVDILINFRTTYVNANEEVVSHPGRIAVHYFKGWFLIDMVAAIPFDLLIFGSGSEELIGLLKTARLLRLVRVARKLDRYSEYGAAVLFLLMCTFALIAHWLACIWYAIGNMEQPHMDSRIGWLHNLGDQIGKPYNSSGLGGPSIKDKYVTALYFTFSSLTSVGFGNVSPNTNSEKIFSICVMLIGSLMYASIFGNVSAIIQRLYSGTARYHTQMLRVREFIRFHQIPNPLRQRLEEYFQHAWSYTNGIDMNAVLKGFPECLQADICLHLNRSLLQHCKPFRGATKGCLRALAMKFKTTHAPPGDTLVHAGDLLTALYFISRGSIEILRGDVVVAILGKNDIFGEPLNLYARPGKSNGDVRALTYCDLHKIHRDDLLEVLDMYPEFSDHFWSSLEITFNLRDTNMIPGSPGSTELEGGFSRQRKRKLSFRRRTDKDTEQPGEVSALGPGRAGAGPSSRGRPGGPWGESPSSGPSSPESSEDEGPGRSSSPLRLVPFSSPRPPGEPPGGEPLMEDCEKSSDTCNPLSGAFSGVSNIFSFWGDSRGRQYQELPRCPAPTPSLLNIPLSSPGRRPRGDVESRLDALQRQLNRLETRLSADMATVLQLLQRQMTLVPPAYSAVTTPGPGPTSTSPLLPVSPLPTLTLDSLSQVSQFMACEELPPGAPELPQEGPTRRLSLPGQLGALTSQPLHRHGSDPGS
Sequence of Cytochrome P450 2C9 (P11712 whole entry): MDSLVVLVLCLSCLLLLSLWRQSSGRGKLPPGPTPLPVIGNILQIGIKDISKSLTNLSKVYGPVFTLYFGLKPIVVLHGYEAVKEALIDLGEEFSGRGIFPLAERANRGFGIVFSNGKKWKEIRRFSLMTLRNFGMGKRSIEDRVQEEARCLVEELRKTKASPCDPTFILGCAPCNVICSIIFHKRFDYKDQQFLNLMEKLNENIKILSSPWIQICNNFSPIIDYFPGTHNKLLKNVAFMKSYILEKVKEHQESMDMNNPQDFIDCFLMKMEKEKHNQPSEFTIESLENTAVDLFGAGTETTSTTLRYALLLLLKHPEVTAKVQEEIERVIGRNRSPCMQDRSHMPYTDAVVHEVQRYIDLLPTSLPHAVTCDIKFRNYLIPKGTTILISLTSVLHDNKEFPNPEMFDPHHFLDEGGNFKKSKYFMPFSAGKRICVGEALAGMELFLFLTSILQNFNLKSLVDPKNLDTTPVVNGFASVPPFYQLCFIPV
Sequence of Cytochrome P450 3A4 (P08684 whole entry): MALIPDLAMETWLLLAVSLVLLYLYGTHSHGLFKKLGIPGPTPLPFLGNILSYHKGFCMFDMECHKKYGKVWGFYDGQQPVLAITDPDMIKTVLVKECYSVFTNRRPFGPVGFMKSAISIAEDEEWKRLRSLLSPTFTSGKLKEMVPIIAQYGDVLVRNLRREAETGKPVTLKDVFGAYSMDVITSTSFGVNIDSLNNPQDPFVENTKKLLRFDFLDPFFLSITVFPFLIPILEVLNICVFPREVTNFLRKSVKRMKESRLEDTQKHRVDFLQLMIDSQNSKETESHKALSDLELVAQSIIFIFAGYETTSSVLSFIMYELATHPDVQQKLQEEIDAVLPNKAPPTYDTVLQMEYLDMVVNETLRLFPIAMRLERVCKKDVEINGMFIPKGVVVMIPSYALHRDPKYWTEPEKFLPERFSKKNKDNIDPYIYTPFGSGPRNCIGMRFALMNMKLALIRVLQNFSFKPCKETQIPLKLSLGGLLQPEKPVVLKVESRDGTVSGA

**Q.** With `NS(=O)(=O)NCCNc1nonc1C(=NO)Nc1ccc(F)c(Br)c1` [EPACADOSTAT] as the compound, how does the inhibition in vivo at 100 mg/kg (MC-38) read?
**A.** 66.9%

**Q.** What about the half-life [1] of the same compound?
**A.** 293 min

**Q.** And the half-life [2]?
**A.** 73.1 min

**Q.** What about the fraction unbound [3] of the same compound?
**A.** 0.015

**Q.** And the fraction unbound [4]?
**A.** 0.025

**Q.** And the fraction unbound [5]?
**A.** 0.03

**Q.** And the INH [6]?
**A.** > 30 µM

**Q.** What about the INH (Cytochrome P450 3A4) of the same compound?
**A.** > 10 µM

**Q.** What about the INH (Cytochrome P450 2D6) of the same compound?
**A.** > 10 µM

**Q.** And the IC50 (Cytochrome P450 2C19)?
**A.** > 10 µM

**Q.** What about the INH (Cytochrome P450 2C9) of the same compound?
**A.** > 10 µM

**Q.** And the INH (Cytochrome P450 1A2)?
**A.** > 10 µM

**Q.** What about the bioavailability [7] of the same compound?
**A.** 44%

**Q.** What about the clearance [8] of the same compound?
**A.** 49.2 mL/min/kg

**Q.** What about the half-life [9] of the same compound?
**A.** 145 min

**Q.** And the AUC at 24 h [10]?
**A.** 1020 ng·h/mL

**Q.** And the Cmax [11]?
**A.** 253 ng/mL

**Q.** And the bioavailability [12]?
**A.** 50%

**Q.** What about the clearance [13] of the same compound?
**A.** 36.6 mL/min/kg

**Q.** And the half-life [14]?
**A.** 302 min

**Q.** And the AUC at 24 h [15]?
**A.** 676 ng·h/mL

**Q.** And the Cmax [16]?
**A.** 245 ng/mL

**Q.** What about the bioavailability [17] of the same compound?
**A.** 55%

**Q.** And the clearance [18]?
**A.** 29 mL/min/kg

**Q.** And the half-life [19]?
**A.** 164 min

**Q.** What about the AUC at 24 h [20] of the same compound?
**A.** 807 ng·h/mL

**Q.** What about the Cmax [21] of the same compound?
**A.** 133 ng/mL

**Q.** And the Activity [22]?
**A.** Non-Toxic

**Q.** What about the IC50 [23] of the same compound?
**A.** > 100 µM
